Measurements from ChEMBL document CHEMBL1201862, “PubChem BioAssay data set” (2004).
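How tested: cells in 96-well plates exposed to compound for 48 hours at five concentrations. GI50 = concentration required for 50% inhibition of growth.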 Activity calls are given as the source filed them. Cut-off read from the data, not from the text of the source: active = GI50 up to about 1.1 µM and inactive = higher.

Columns and labels:
Assay in all cases: NCI-60 cell line screen, 48 h
COLO 205 = tested on: COLO 205
HOP-92 = tested on: HOP-92
SN12C = tested on: SN12C
OVCAR-3 = tested on: OVCAR-3
TK-10 = tested on: TK-10
SF-268 = tested on: SF-268
UO-31 = tested on: UO-31
OVCAR-5 = tested on: OVCAR-5
SK-MEL-2 = tested on: SK-MEL-2
OVCAR-8 = tested on: OVCAR-8
EKVX = tested on: EKVX
A498 = tested on: A498
OVCAR-4 = tested on: OVCAR-4
SK-MEL-5 = tested on: SK-MEL-5
RXF 393 = tested on: RXF 393
MDA-MB-435 = tested on: MDA-MB-435
Hs-578T = tested on: Hs-578T
DU-145 = tested on: DU-145
MDA-N = tested on: MDA-N
BT-549 = tested on: BT-549

SMILES | GI50 (COLO 205) | GI50 (HOP-92) | GI50 (SN12C) | GI50 (OVCAR-3) | GI50 (TK-10) | GI50 (SF-268) | GI50 (UO-31) | GI50 (OVCAR-5) | GI50 (SK-MEL-2) | GI50 (OVCAR-8) | GI50 (EKVX) | GI50 (A498) | GI50 (OVCAR-4) | GI50 (SK-MEL-5) | GI50 (RXF 393) | GI50 (MDA-MB-435) | GI50 (Hs-578T) | GI50 (DU-145) | GI50 (MDA-N) | GI50 (BT-549)
Cc1cc(C)n(-c2ccnc3cc(Cl)ccc23)n1 | > 100 µM (inactive) | > 100 µM (inactive) | > 100 µM (inactive) | > 100 µM (inactive) | > 100 µM (inactive) | > 100 µM (inactive) | 91.6 µM (inactive) | > 100 µM (inactive) | > 100 µM (inactive) | > 100 µM (inactive) | > 100 µM (inactive) | > 100 µM (inactive) | > 100 µM (inactive) | > 100 µM (inactive) | > 100 µM (inactive) |  |  |  |  | 
CC1S/C(=N\N=C2/C(=O)Nc3ccc(Br)cc32)N(C2CCCCC2)C1=O (configuration not stated) | 3.85 µM (inactive) | 7.46 µM (inactive) | 2.93 µM (inactive) | 2.75 µM (inactive) | 1.15 µM (inactive) | 6.38 µM (inactive) | 1.06 µM (active) | 14.4 µM (inactive) | 1.45 µM (inactive) |  | 4.16 µM (inactive) | 3.04 µM (inactive) | 1.89 µM (inactive) | 40.6 µM (inactive) | 3.21 µM (inactive) | 5.37 µM (inactive) | 3.22 µM (inactive) | 3.73 µM (inactive) | 12.1 µM (inactive) | 
C[C@@H](Cl)[C@H]1CCCN(Cc2ccc(Br)cc2)C1 | > 12.5 µM (inactive) | > 12.5 µM (inactive) |  | > 12.5 µM (inactive) | > 12.5 µM (inactive) | > 12.5 µM (inactive) | > 12.5 µM (inactive) | > 12.5 µM (inactive) | > 12.5 µM (inactive) | > 12.5 µM (inactive) | > 12.5 µM (inactive) | > 12.5 µM (inactive) | > 12.5 µM (inactive) | > 12.5 µM (inactive) | > 12.5 µM (inactive) | > 12.5 µM (inactive) | > 12.5 µM (inactive) | > 12.5 µM (inactive) | > 12.5 µM (inactive) | 
BrC1=C(Br)C2(SCCS2)[C@H]2C[C@@H]1c1ccccc12 | 29.4 µM (inactive) | > 59.2 µM (inactive) | > 91.2 µM (inactive) | > 100 µM (inactive) | > 100 µM (inactive) | 63.7 µM (inactive) | 29.4 µM (inactive) | > 100 µM (inactive) | 41.2 µM (inactive) | > 100 µM (inactive) | 36.9 µM (inactive) | > 100 µM (inactive) | 29.9 µM (inactive) | 9.38 µM (inactive) | > 31.2 µM (inactive) | 4.4 µM (inactive) |  | 47.3 µM (inactive) | 4.07 µM (inactive) | 38.4 µM (inactive)
Nc1c2ccccc2nc2c1ccc1ncccc12 | 20.3 µM (inactive) | 22.8 µM (inactive) | 21.1 µM (inactive) | 24 µM (inactive) | 34.1 µM (inactive) |  | 10.1 µM (inactive) | 21.5 µM (inactive) | 18.6 µM (inactive) | 21.2 µM (inactive) | 27.1 µM (inactive) |  | 17.9 µM (inactive) | 28.4 µM (inactive) | 24.8 µM (inactive) | 27.8 µM (inactive) |  | 28.2 µM (inactive) | 28.1 µM (inactive) | 48.3 µM (inactive)
O=C(O)c1cc(Cl)cc2c1NC1(N2)C(=O)Nc2ccccc21 (configuration not stated) | > 100 µM (inactive) | > 100 µM (inactive) | > 100 µM (inactive) | > 100 µM (inactive) | > 100 µM (inactive) | 62.1 µM (inactive) | > 100 µM (inactive) | > 100 µM (inactive) | > 100 µM (inactive) | 39.6 µM (inactive) | > 100 µM (inactive) | > 100 µM (inactive) | > 100 µM (inactive) | > 100 µM (inactive) | 52.6 µM (inactive) | > 100 µM (inactive) |  | > 100 µM (inactive) | > 100 µM (inactive) | > 100 µM (inactive)
COP1(=O)NCc2ncccc2O1 (configuration not stated) | > 100 µM (inactive) | > 100 µM (inactive) | > 100 µM (inactive) | > 100 µM (inactive) |  |  | > 100 µM (inactive) | > 100 µM (inactive) | > 100 µM (inactive) | > 100 µM (inactive) | > 100 µM (inactive) | > 100 µM (inactive) | > 100 µM (inactive) | > 100 µM (inactive) | > 100 µM (inactive) | > 100 µM (inactive) |  | > 100 µM (inactive) | > 100 µM (inactive) | > 100 µM (inactive)
CO[C@@]12CC(=O)/C(=C(O)\C=C\c3ccccc3)C(=O)[C@]1(OC)Cc1ccccc1O2 | 47.5 µM (inactive) | 48.6 µM (inactive) | 30.6 µM (inactive) | 26.2 µM (inactive) | 42.8 µM (inactive) | 27.7 µM (inactive) | 40 µM (inactive) | 41.7 µM (inactive) | 36.8 µM (inactive) | 22.3 µM (inactive) | 38.5 µM (inactive) | 33.3 µM (inactive) | 53.8 µM (inactive) | 36.5 µM (inactive) | 18.8 µM (inactive) |  |  |  |  | 
CCCCCCCCCCCCCCCCCCNC(=S)N/C=C1\C(=O)Nc2ccccc2C1=O | 17.4 µM (inactive) | 15.8 µM (inactive) | 22.4 µM (inactive) | 18.5 µM (inactive) | 23.3 µM (inactive) | 13.6 µM (inactive) | 15.5 µM (inactive) | 15.4 µM (inactive) | 21.4 µM (inactive) | 15.6 µM (inactive) | 13.7 µM (inactive) | 21.4 µM (inactive) | 20.6 µM (inactive) | 24.2 µM (inactive) | 22.2 µM (inactive) | 19.5 µM (inactive) |  | 16 µM (inactive) | 17.4 µM (inactive) | 18.9 µM (inactive)
COC1=CCC=C(C[C@@H]2NCCc3cc(OC)c(OC)cc32)C1 | > 100 µM (inactive) | 41.5 µM (inactive) | > 100 µM (inactive) | > 100 µM (inactive) | > 100 µM (inactive) | > 100 µM (inactive) | > 100 µM (inactive) | > 100 µM (inactive) | > 100 µM (inactive) | > 100 µM (inactive) | > 100 µM (inactive) | > 100 µM (inactive) | > 100 µM (inactive) | > 100 µM (inactive) | > 100 µM (inactive) |  |  |  |  | 
N/N=C(\Nc1ccccc1)SCc1ccccc1 | > 100 µM (inactive) | > 100 µM (inactive) | > 100 µM (inactive) | > 100 µM (inactive) |  |  | > 100 µM (inactive) | > 100 µM (inactive) | > 100 µM (inactive) | > 100 µM (inactive) |  | > 100 µM (inactive) | > 100 µM (inactive) | > 100 µM (inactive) | > 100 µM (inactive) | > 100 µM (inactive) |  | > 100 µM (inactive) | > 100 µM (inactive) | > 100 µM (inactive)
Cc1cccc(NC(=O)C(=O)C(C(=O)c2ccc3ccccc3c2)C2OC(=O)c3ccccc32)c1C (configuration not stated) | 11.5 µM (inactive) | 11.8 µM (inactive) | 15.9 µM (inactive) | 12.9 µM (inactive) | 23.3 µM (inactive) | 6.03 µM (inactive) | 14.5 µM (inactive) | 21.7 µM (inactive) | 13.2 µM (inactive) | 10.3 µM (inactive) | 26.1 µM (inactive) | 10.1 µM (inactive) | 10.9 µM (inactive) | 12.4 µM (inactive) | 2.39 µM (inactive) |  |  |  |  | 
CC(C)[C@H](NC(=O)[C@@H](O)[C@H](N)Cc1ccccc1)C(=O)N[C@@H](Cc1ccccc1)C(=O)O | > 100 µM (inactive) | > 100 µM (inactive) | > 100 µM (inactive) | > 100 µM (inactive) | > 100 µM (inactive) | > 100 µM (inactive) | > 100 µM (inactive) | > 100 µM (inactive) | > 100 µM (inactive) | > 100 µM (inactive) | > 100 µM (inactive) | > 100 µM (inactive) | > 100 µM (inactive) | > 100 µM (inactive) |  | > 100 µM (inactive) | > 100 µM (inactive) | > 100 µM (inactive) | > 100 µM (inactive) | 
CC(C)C(NC(=O)C(Cc1ccccc1)NC(=O)[C@H]1CCC[C@H]1NC(=O)C(N)Cc1ccc(O)cc1)C(N)=O (some centres not stated) | > 100 µM (inactive) | > 100 µM (inactive) | > 100 µM (inactive) | > 100 µM (inactive) | > 100 µM (inactive) | > 100 µM (inactive) | > 100 µM (inactive) | > 100 µM (inactive) | > 100 µM (inactive) | > 100 µM (inactive) | > 100 µM (inactive) | > 100 µM (inactive) | > 100 µM (inactive) | 17.8 µM (inactive) | > 100 µM (inactive) | > 100 µM (inactive) | > 100 µM (inactive) | > 100 µM (inactive) | > 100 µM (inactive) | 
O=C(O)C1C2CCC(O2)C1C(=O)N1CCCCC1 (configuration not stated) | 1.95 µM (inactive) | 2.38 µM (inactive) | 2.57 µM (inactive) | 1.93 µM (inactive) | 2.99 µM (inactive) | 13.2 µM (inactive) | 19.9 µM (inactive) | 26.5 µM (inactive) | 8.17 µM (inactive) | 4.61 µM (inactive) | 4.02 µM (inactive) | 1.28 µM (inactive) | 10.8 µM (inactive) | 13.8 µM (inactive) | 2.2 µM (inactive) |  |  |  |  | 
c1cn[nH]c1 [PYRAZOLE] | > 10 µM (inactive) | > 10 µM (inactive) | > 10 µM (inactive) | > 10 µM (inactive) | > 10 µM (inactive) | > 10 µM (inactive) | > 10 µM (inactive) |  | > 10 µM (inactive) | > 10 µM (inactive) | > 10 µM (inactive) | > 10 µM (inactive) | > 10 µM (inactive) | > 10 µM (inactive) | > 10 µM (inactive) | > 10 µM (inactive) | > 10 µM (inactive) |  | > 10 µM (inactive) | 
